From patent US20250368636A1, “NOVEL HETEROCYCLIC COMPOUND, SALT THEREOF, AND L[…] COMPOSITION” (The University of Electro-Communications, priority 2022, published 2025)

Target: natural firefly luciferase (Fluc) (Photinus pyralis, UniProt P08659)
Test: Measurement of emission spectrum with natural firefly luciferase, ATP magnesium salt and luminescent substrate
Type: biochemical
Details: 100 μM substrate solution, KPB pH 8.0, Fluc 1 mg/mL, 10 mM ATP magnesium salt, measured for 180 seconds
Experimental: The emission spectra were measured using the luminescent substrates represented by the structural formulas (1-1) to (1-10) synthesized as described above and the luminescent substrate represented by the structural formula (a) below. The luminescent substrate represented by the structural formula (a) was prepared according to “Synthesis of Luminescent Substrate C” in WO 2021/193069 A1 (PTL 4).
Specifically, 5 μL of 500 mM potassium phosphate buffer (KPB, pH 8.0), 5 μL of a 100 μM solution of each luminescent substrate, 5 µL of a 1 mg/mL solution of natural firefly luciferase (Fluc), and 10 μL of a 10 mM ATP magnesium salt solution were mixed, and the emission spectrum was measured for 180 seconds using a luminescence measurement device (AB-1850 manufactured by ATTO Corporation). However, the substrate concentration for the luminescent substrate represented by the structural formula (a) was set to 1 mM, and the substrate concentration for the luminescent substrate represented by the structural formula (1-6) was set to 10 mM. Note that FIGS. 1 to 3 illustrate emission spectra normalized so that the maximum emission intensity was 1.

Chain of natural firefly luciferase (Fluc) (P08659 whole entry): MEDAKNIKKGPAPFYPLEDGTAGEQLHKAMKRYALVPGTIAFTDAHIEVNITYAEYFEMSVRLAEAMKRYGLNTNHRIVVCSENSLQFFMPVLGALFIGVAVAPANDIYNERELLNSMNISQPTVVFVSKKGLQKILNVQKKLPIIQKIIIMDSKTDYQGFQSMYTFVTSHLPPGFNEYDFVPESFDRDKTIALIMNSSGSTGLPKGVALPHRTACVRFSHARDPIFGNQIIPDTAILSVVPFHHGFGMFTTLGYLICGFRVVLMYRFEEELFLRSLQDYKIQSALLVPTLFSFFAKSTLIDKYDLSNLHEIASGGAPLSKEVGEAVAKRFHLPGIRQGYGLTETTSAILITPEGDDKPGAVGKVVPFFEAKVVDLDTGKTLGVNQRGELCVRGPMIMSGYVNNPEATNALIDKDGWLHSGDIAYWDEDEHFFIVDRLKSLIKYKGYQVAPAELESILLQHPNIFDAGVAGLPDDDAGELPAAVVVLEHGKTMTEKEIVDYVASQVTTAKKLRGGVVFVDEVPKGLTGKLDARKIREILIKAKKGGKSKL

| SMILES | Maximum emission wavelength for each substrate (λmax) [nm] |
| --- | --- |
| O=C(O)[C@H]1CSC(c2ccc(/C=C/c3ccc[nH]3)cn2)=N1 [Compound of structural formula (1-2)] | 660 |
| Cn1cccc1/C=C/c1ccc(C2=N[C@@H](C(=O)O)CS2)cc1 [Compound of structural formula (1-3)] | 640 |
| O=C(O)[C@H]1CSC(c2ccc(/C=C/c3ccc[nH]3)cc2)=N1 [Compound of structural formula (1-1)] | 640 |
| CN(C)c1ncc(/C=C/c2ccc(C3=N[C@@H](C(=O)O)CS3)cc2)s1 [Compound of structural formula (1-8)] | 680 |
| Cn1cccc1/C=C/c1ccc(C2=N[C@@H](C(=O)O)CS2)nc1 [Compound of structural formula (1-4)] | 660 |
| CN(C)c1cnc(/C=C/c2ccc(C3=N[C@@H](C(=O)O)CS3)nc2)s1 [Compound of structural formula (1-9)] | 760 |
| CN(C)c1ncc(/C=C/c2ccc(C3=N[C@@H](C(=O)O)CS3)nc2)s1 [Compound of structural formula (1-7)] | 710 |
| CN(C)c1cnc(/C=C/c2ccc(C3=N[C@@H](C(=O)O)CS3)cn2)s1 [Compound of structural formula (1-10)] | 730 |
